Consider 1 molecule from publication PMC5465257, “Evaluation of JNJ-54717793 a Novel Brain Penetrant Selective Orexin 1 Receptor Antagonist in Two Rat Models of Panic Attack Provocation” (Frontiers in Pharmacology, 2017).

Molecules are shown by their SMILES.

Data set [1] has as its system wild-type mice. The data set is described as follows: Sleep recording (EEG/EMG) in wild-type mice. It counts as in vivo, mouse. The procedure: (§1) Sleep experiments were conducted in male Sprague-Dawley rats (350–450 g, Harlan Laboratories, Livermore, CA, United States) and in male C57Bl6 OX2R knockout (KO) and corresponding wild-type mice (30–35 g, Charles River Laboratories, San Diego, CA, United States) as described previously ([Dugovic et al., 2009]). Animals were chronically implanted with telemetric devices (Data Sciences International, St. Paul, MN, United States) for the recording of electroencephalogram (EEG) and electromyogram (EMG) signals. Polysomnographic waveforms were analyzed per 10-s epoch and classified as wake, non-rapid eye movement (NREM) or REM sleep by using the computer software program SleepSign (Kissei Comtec, Nagano, Japan). For each experiment, EEG and EMG signals were recorded for up to 6 h after administration of the tested compounds. Analysis of sleep parameters included latency to NREM sleep (defined as the time interval to the first six consecutive NREM epochs) and REM sleep (the first two consecutive REM epochs post-treatment), and the duration of NREM and REM.
(§2) Results were averaged and expressed as mean ± SEM in defined time intervals. To determine whether differences were significant at a given interval, either paired Student’s t-test or two-way analysis of variance (ANOVA) (interaction time × treatment), repeated measures followed by Bonferroni post hoc test was performed.
(§3) In the present study, the in vivo functional target engagement was investigated in a model of permanent inhibition of OX2R, and the effects of JNJ-5471773 on sleep-wake states were examined in mice lacking the OX2R relative to their corresponding wild-type mice. […] NREM sleep latency and duration were not affected in both genotypes (not shown).

For data set [2], the system named is C57Bl6 OX2R knockout (KO) mice. The data set is described as follows: Sleep recording (EEG/EMG) in OX2R knockout mice. It counts as in vivo, mouse. As for the experimental part: as §1, §2, §3
Data set [3] concerns Sprague-Dawley rats. Nature of the data set: Normoxic 20% CO2 panic provocation model. The procedure: Experiments were performed in male Sprague-Dawley rats (300–350 g, Harlan Laboratory, Indianapolis, IN, United States). […] Following exposure to hypercarbic and atmospheric air gasses, rats were immediately placed in the open-field box for a 5 min period then assessed in SI test for 5 min. The data reported are changes in activity, expressed in 1 min bins, relative to the average of the baseline measurement (t-5 to t-1 minute) from each rat.
Each dependent variable for assessment of behavior and radiotelemetry data was respectively analyzed using a one way ANOVA, or a one way ANOVA with repeated measures with drug treatment as the main factor and time as repeated measures. In the presence of significant main effects post hoc tests were conducted using a parametric Fisher’s LSD test. Within subjects time effects were also assessed using a Dunnett’s one way analysis with the minute prior to the i.v infusion used as the control. Statistical significance was accepted with p < 0.05. All statistical analyses were carried out using SPSS 13.0 (SPSS, Inc., Chicago, IL, United States) and all graphs were generated using SigmaPlot 2001 (SPSS, Inc., Chicago, IL, United States) or Graphpad Prizm 7 Software, Inc. for Windows.
Activation of the OX1R is a critical component of CO2-mediated anxiety and hypertension ([Johnson et al., 2012a]). Exposing rats to higher concentrations of hypercarbic gas (e.g., 20% CO2) depolarizes OX neurons by interacting with pH/ CO2 chemosensitive K^+ channels ([Williams et al., 2007]), and also causes subsequent release of orexin at post-synaptic targets in the brain and spinal cord to mobilize anxiety-like behavior, hypertension, and increases ventilatory responses ([Johnson et al., 2012c], [2015]). JNJ-54717793 was tested in a rat model of CO2-induced panic.

Data set [4] addresses T1, human OX2R (Homo sapiens, UniProt O43614).
T1 sequence (O43614 1-444): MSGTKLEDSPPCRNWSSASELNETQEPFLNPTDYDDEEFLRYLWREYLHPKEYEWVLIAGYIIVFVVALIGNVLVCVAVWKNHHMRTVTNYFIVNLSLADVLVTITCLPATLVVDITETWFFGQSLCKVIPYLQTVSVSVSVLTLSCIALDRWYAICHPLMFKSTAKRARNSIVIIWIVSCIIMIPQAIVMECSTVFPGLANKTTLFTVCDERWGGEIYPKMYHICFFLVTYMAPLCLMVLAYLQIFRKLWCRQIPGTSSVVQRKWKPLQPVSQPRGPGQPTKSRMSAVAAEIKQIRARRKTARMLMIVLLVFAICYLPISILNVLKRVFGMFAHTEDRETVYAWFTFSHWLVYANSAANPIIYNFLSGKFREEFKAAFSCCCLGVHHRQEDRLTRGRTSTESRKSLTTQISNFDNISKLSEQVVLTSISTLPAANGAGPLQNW
The data set is described as follows: Calcium mobilization functional assay, PFSK-1 cells, OX-B. In kind it is cell-based. On the technique in general: A change in cytosolic calcium serves as a functional read-out for many receptors and channels.
Description: The human OX2R functional assay used PFSK-1 cells which are a human neuroectodermal cell line that innately expresses the OX2R. Since the intracellular calcium response is transient and not consistent with equilibrium assumptions, the assays were performed by giving a standard, EC80 dose of the OX agonist and calculating a pKB from inhibition of the agonist response by a dose range of the antagonists. The cells were plated in black 96 well tissue culture plates with clear bottoms at 50,000 cells/well and grown overnight at 37°C in 5% carbon dioxide (CO2). […] The cell plate was then transferred to the Molecular Devices Fluorometric Imaging Plate Reader (FLIPR) Tetra instrument, which adds the OX agonist and monitors changes in fluorescence which reflect intracellular calcium levels.
Results were calculated using GraphPad Prism (San Diego, CA, United States) software. Raw data from the FLIPR Tetra was exported as the difference between maximum and minimum fluorescence observed for each well. A non-linear regression was used to determine the agonist EC50 and antagonist IC50 for each plate, then the antagonist KB was calculated according to Cheng and Prusoff ([Cheng and Prusoff, 1973]).

With `O=C(c1cccc(F)c1-c1ncccn1)N1[C@@H]2CC[C@H]1[C@H](Nc1cnc(C(F)(F)F)cn1)C2` [JNJ-54717793, (1S,2R,4R)-7-([(3-fluoro-2-pyrimidin-2-ylphenyl)carbonyl]-N-[5-(trifluoromethyl)pyrazin-2-yl]-7-azabicyclo[2.2.1]heptan-2-amine)], the REM sleep duration result in data set [1] (30 mg/kg oral) is “did not alter”. The REM sleep latency result in data set [1] (30 mg/kg oral) is reported as “slightly reduced”. Also, the “NREM sleep latency and duration” value in data set [1] (30 mg/kg oral (not shown)) and in data set [2] (30 mg/kg oral (not shown)) was “not affected” throughout. In addition, the “time spent in REM sleep” value in data set [2] (30 mg/kg oral, first 6 h post-treatment, versus vehicle) is “prolonged”. The “latency for REM sleep” value in data set [2] (30 mg/kg oral, versus vehicle) is on record as “significantly reduced”. The “CO2-induced pressor responses (MAP)” value is given as “at one time point” in data set [3] (rats, 3 mg/kg p.o.) and “attenuated CO2-induced pressor responses at multiple time points” in data set [3] (rats, 30 mg/kg p.o.). In addition, the “increases in locomotor activity post CO2” value in data set [3] (rats, 3, 10, 30 mg/kg p.o.) is listed as “no effect”. For the same molecule, the “CO2-induced bradycardia responses (HR)” value in data set [3] (rats, 10 and 30 mg/kg p.o.) was “attenuated CO2-induced bradycardia responses at multiple time points”. Moreover, the “center or middle times in the open field test” value in data set [3] (rats, after CO2 challenge) was “Nor was there an effect”. Moreover, the “sedative effects (line crossings) in the open field test” value in data set [3] (rats, after CO2 challenge) is listed as “no apparent sedative effects”. Moreover, the “CO2-induced anxiety behavior in the SI test” value in data set [3] (rats, highest dose (30 mg/kg p.o.)) is “attenuated/blocked”. Besides, in data set [4], the Kb was 0.309 µM.
